Measurements from patent EP0703239A1, “Aminomethylphosphonic and aminomethylphosphinic acids derivatives and their use in the treatment of degenerative articular diseases” (priority 1994, dated 1996).
Where two headings read alike, the source gives them in different places.

Assays:
[1] = test system: Rattenlebermikrosomen; assay: Inhibition of microsomal lipid peroxidation (malondialdehyde/thiobarbituric acid); assay type: biochemical, Ratte; settings: rat liver microsomes, FeSO₄ start, 10 min 37°C; read-out: IC50 Mikrosomale Lipidperoxidation
Experimental: 4. Hemmung der Mikrosomalen Lipidperoxidation […]
Alle Schritte werden bei 0°C durchgeführt. Die Leber einer Ratte wird, um alles Hämoglobin zu entfernen, mit 0,9 % NaCl-Lösung gründlich gespült. Die grob zerkleinerte Leber wird dann in 10 mM Tris/HCl pH 7,4; 250 mM Saccharose (10 ml Puffer/g Leber) gepottert. Zunächst wird 5 Minuten bei 600xg zentrifugiert. Der Überstand wird dann 10 min bei 12000xg zentrifugiert und wird mit festem CaCl₂ (117,6 mg/100 ml) auf eine Konzentration von 8 mM eingestellt. Durch Zentrifugieren bei 25000 xg (15 min) wird ein Mikrosomenniederschlag gewonnen. Dieser Niederschlag wird im gleichen Volumen Puffer (10 mM Tris/HCl pH 7,4; 150 mM KCl) rehomogenisiert und erneut 15 min bei 25000 xg zentrifugiert.
Ein Testansatz besteht aus 20 µl Mikrosomen (100 mg/ml), vgl. oben, gelöst in Puffer (250 mM Tris/HCl pH 6,6, 750 mM KCl), 10 µl 50 mM MgCl₂, 10 µl 200 mM Isocitronensäure, 10 µl 4mM NADP (3,028 mg/ml Wasser), 10 µl 25 mM Niacinamid, 10 µl Isocitratdehydrogenase (1:100 verdünnt) und 20 µl Wasser oder Testsubstanz. Gestartet wird die Reaktion mit 10 µl 0,25 mM FeSO₄. Die Inkubation dauert 10 Minuten und erfolgt bei 37°C. Gestoppt wird mit 500 µl eiskalter 20 %iger Trichloressigsäure. Entstandenes Malondialdehyd wird durch Zugabe von 500 µl 0,67 %iger Thiobarbitursäure und 30 Minuten Inkubation bei 90°C in eine pinkfarbene Verbindung überführt, die bei 532 nm gemessen wird. Die Extinktion im Kontrollansatz ohne Prüfpräparat wird auf 0 % Hemmung gesetzt, während das völlige Verschwinden des Signals 100 % Hemmung bedeutet.

[2] = test system: Chondrozyten; assay: Stimulation of cartilage matrix (proteoglycan) synthesis in chondrocyte agarose culture, 35S-sulfate incorporation; assay type: cell-based, Rinder; settings: Chondrocyte, read-out: Stimulationsfaktor der Proteoglykansynthese
Source text: 1. Wirksamkeit in der Synthese-Stimulierung von Knorpel-Matrix, Prüfung in der Chondrozyten-Kultur
Zellen: Den Fußgelenken frisch geschlachteter Rinder werden der hyaline Knorpel entnommen, mit Pronase (Boehringer Mannheim) und Collagenase (Sigma), die native Matrix enzymatisch abgebaut, und die Chondrozyten in 1 %iger "low melting Agarose" in 24er Multiwell-Schalen in einer Zelldichte von 4 x 10⁶ pro well ausplattiert.
Medium: Komplettes Medium enthält HAM's F12 (Biochrom KG, Berlin) und 10 % foetales Kälberserum (Boehringer Mannheim), die Testsubstanz wird in Medium gelöst, üblicherweise in einer Konzentration von 10⁻⁵ M zugegeben und bei jedem Mediumwechsel erneut zugefügt.
Versuchsdurchführung: Die Behandlung erfolgt vom dritten bis zehnten Tag der Primärkultur, am 9. […] Die dissoziative Extraktion der Proteoglykane aus der Agarose-Schicht wird mit 8M Guanidinium-Hydrochlorid und beigefügten Proteinase-Inhibitoren (Sigma) unter Schütteln bei 4° C über 24 h durchgeführt. Der Überstand wird nach Zentrifugation über eine PD 10 ®Sephadex G 25 Säule in freies und inkorporiertes Sulfat getrennt, dessen Aktivität nach Aliquotierung im β-Szintillationscounter gemessen wird.
Auswertung: Der Parameter für die Matrixproduktion der Chondrozyten ist die Menge synthetisierter Proteoglykane, gemessen als Sulfatinkorporation in cpm. Aus vier Wells pro Gruppe wird der Mittelwert errechnet. Dieser wird durch den Mittelwert der unbehandelten Kontrolle dividiert, und ergibt somit einen Stimulationsfaktor, der bei Stimulation der Matrixsynthese größer 1 ist, bei Hemmung derselben durch Substanzwirkung kleiner 1, und bei unveränderter Matrixsynthese gleich 1 ist.
Als Standard wird Diacerein eingesetzt, das unter dem Markennamen "Artodar" von der Firma Proter bzw. […] Tabelle II

[3] = test system: Chondrozyten; assay: IL-1-induced chondrocytic chondrolysis in chondrocyte agarose culture, 35S-sulfate incorporation; settings: agarose cell culture with 5 u/ml human rec. IL-1 alpha; factor relative to IL-1 treated control
[4] = agarose cell culture, test substance usually 10⁻⁵ M, mean sulfate incorporation divided by untreated control (>1 = stimulation)

CCCOP(=O)(OCCC)C(NC1CCCCC1)c1cc(C(C)(C)C)c(O)c(C(C)(C)C)c1 (centres unmarked) [Beispiel 9]
IC50 [1]: 2.1 µM

CCOP(=O)(OCC)C(Nc1ccccn1)c1cc(C(C)(C)C)c(O)c(C(C)(C)C)c1 (centres unmarked) [Beispiel 79]
fold induction at 10 µM [2]: 1.6
IC50 [1]: 2.3 µM
Stimulationsfaktor der Proteoglykansynthese [3]: 1,2

CC(C)(C)c1cc(C(Nc2ccccc2)[PH](=O)O)cc(C(C)(C)C)c1O (centres unmarked) [Beispiel 36]
fold induction at 10 µM [2, 4]: 1.2
Stimulationsfaktor der Proteoglykansynthese [3]: 2,5

CCOP(=O)(OCC)C(Nc1ccc2c(c1)CCCC2)c1cc(C(C)(C)C)c(O)c(C(C)(C)C)c1 (centres unmarked) [Beispiel 75]
IC50 [1]: 2.9 µM

CCOP(=O)(OCC)C(c1cc(C(C)(C)C)c(O)c(C(C)(C)C)c1)N(C)c1ccc(Cl)cc1 (centres unmarked) [Beispiel 54]
IC50 [1]: 2.8 µM
Stimulationsfaktor der Proteoglykansynthese [3]: 1,4

C=CCOP(=O)(OCC=C)C(Nc1ccc(Cl)cc1)c1cc(C(C)(C)C)c(O)c(C(C)(C)C)c1 (centres unmarked) [Beispiel 46]
IC50 [1]: 0.86 µM

CCCN(CCC)C(c1cc(C(C)(C)C)c(O)c(C(C)(C)C)c1)P(=O)(OCC)OCC (centres unmarked) [Beispiel 21]
IC50 [1]: 6.35 µM

CCCCOP(=O)(OCCCC)C(Nc1ccc(Cl)c(Cl)c1)c1cc(C(C)(C)C)c(O)c(C(C)(C)C)c1 (centres unmarked) [Beispiel 49]
fold induction at 10 µM [2, 4]: 1.2
IC50 [1]: > 10 µM
Stimulationsfaktor der Proteoglykansynthese [3]: 1,5

CCOP(=O)(OCC)C(Nc1ccccc1C(=O)OC)c1cc(C(C)(C)C)c(O)c(C(C)(C)C)c1 (centres unmarked) [Beispiel 65]
fold induction at 10 µM [2]: 1.3
IC50 [1]: 0.73 µM

CCOP(=O)(OCC)C(NCc1ccc(C#N)cc1)c1cc(C(C)(C)C)c(O)c(C(C)(C)C)c1 (centres unmarked) [Beispiel 35]
Stimulationsfaktor der Proteoglykansynthese [3]: 3,9

CCOP(=O)(OCC)C(NCc1ccc(OC)cc1)c1cc(C(C)(C)C)c(O)c(C(C)(C)C)c1 (centres unmarked) [Beispiel 32]
Stimulationsfaktor der Proteoglykansynthese [3]: 1,4

CCOP(=O)(OCC)C(NC1CCN(Cc2ccccc2)CC1)c1cc(C(C)(C)C)c(O)c(C(C)(C)C)c1 (centres unmarked) [Beispiel 18]
IC50 [1]: 2.03 µM

CC(=O)Oc1cccc2c1C(=O)c1c(OC(C)=O)cc(C(=O)O)cc1C2=O [Diacerein, reference compound]
fold induction at 10 µM [2, 4]: 1
Stimulationsfaktor der Proteoglykansynthese [3]: 1,1

CCOP(=O)(OCC)C(Nc1ccc(S(N)(=O)=O)cc1)c1cc(C(C)(C)C)c(O)c(C(C)(C)C)c1 (centres unmarked) [Beispiel 68]
IC50 [1]: 2.37 µM
Stimulationsfaktor der Proteoglykansynthese [3]: 1,3

CCCCNC(c1cc(C(C)(C)C)c(O)c(C(C)(C)C)c1)P(=O)(OCC)OCC (centres unmarked) [Beispiel 6]
fold induction at 10 µM [2]: 1.2
IC50 [1]: 2.25 µM
Stimulationsfaktor der Proteoglykansynthese [3]: 1,4

CCOP(=O)(OCC)C(Nc1ccc(OC)cc1)c1cc(C(C)(C)C)c(O)c(C(C)(C)C)c1 (centres unmarked) [Beispiel 57]
fold induction at 10 µM [2]: 1.5
Stimulationsfaktor der Proteoglykansynthese [3]: 1,4

CCCCOP(=O)(OCCCC)C(Nc1ccc2ccccc2c1)c1cc(C(C)(C)C)c(O)c(C(C)(C)C)c1 (centres unmarked) [Beispiel 77]
IC50 [1]: 8.7 µM
Stimulationsfaktor der Proteoglykansynthese [3]: 1,3

CCOP(=O)(OCC)C(Nc1ccc(C(=O)OC)cc1)c1cc(C(C)(C)C)c(O)c(C(C)(C)C)c1 (centres unmarked) [Beispiel 66]
IC50 [1]: 0.75 µM

CCOP(=O)(OCC)C(Nc1cc(C(F)(F)F)ccc1F)c1cc(C(C)(C)C)c(O)c(C(C)(C)C)c1 (centres unmarked) [Beispiel 52]
fold induction at 10 µM [2]: 1.7

CCOP(=O)(OCC)C(NCc1ccc2c(c1)OCO2)c1cc(C(C)(C)C)c(O)c(C(C)(C)C)c1 (centres unmarked) [Beispiel 30]
fold induction at 10 µM [2]: 1.4
Stimulationsfaktor der Proteoglykansynthese [3]: 1,5

CC(C)(C)c1cc(C(Nc2ccc(Cl)cc2)P(C)(=O)O)cc(C(C)(C)C)c1O (centres unmarked) [Beispiel 41]
Stimulationsfaktor der Proteoglykansynthese [3]: 3,5

CCN(CC)CCNC(c1cc(C(C)(C)C)c(O)c(C(C)(C)C)c1)[PH](=O)O (centres unmarked) [Beispiel 14]
Stimulationsfaktor der Proteoglykansynthese [3]: 1,2

CC(C)(C)c1cc(C(Nc2ccc(Cl)cc2)[PH](=O)O)cc(C(C)(C)C)c1O (centres unmarked) [Beispiel 40]
IC50 [1]: 0.49 µM
Stimulationsfaktor der Proteoglykansynthese [3]: 2,1

CCOP(=O)(OCC)C(NC1CC(C)(C)NC(C)(C)C1)c1cc(C(C)(C)C)c(O)c(C(C)(C)C)c1 (centres unmarked) [Beispiel 17]
IC50 [1]: 3.18 µM

CCOP(=O)(OCC)C(Nc1ccc(OC)c(OC)c1)c1cc(C(C)(C)C)c(O)c(C(C)(C)C)c1 (centres unmarked) [Beispiel 58]
fold induction at 10 µM [2]: 2.5
Stimulationsfaktor der Proteoglykansynthese [3]: 1,2

CCOP(=O)(OCC)C(NC(C)C(=O)OC)c1cc(C(C)(C)C)c(O)c(C(C)(C)C)c1 (centres unmarked) [Beispiel 19]
Stimulationsfaktor der Proteoglykansynthese [3]: 4,3

CC(C)(C)c1cc(C(NCc2ccccc2)[PH](=O)O)cc(C(C)(C)C)c1O (centres unmarked) [Beispiel 27]
Stimulationsfaktor der Proteoglykansynthese [3]: 1,2

CCOP(=O)(OCC)C(Nc1ccccc1)c1cc(C(C)(C)C)c(O)c(C(C)(C)C)c1 (centres unmarked) [Beispiel 37]
Stimulationsfaktor der Proteoglykansynthese [3]: 1,5

CCOP(=O)(OCC)C(Nc1ccc(NC(=N)N)cc1)c1cc(C(C)(C)C)c(O)c(C(C)(C)C)c1 (centres unmarked) [Beispiel 73]
IC50 [1]: 0.67 µM

CCOP(=O)(OCC)C(Nc1ccc(Cl)c(Cl)c1)c1cc(C(C)(C)C)c(O)c(C(C)(C)C)c1 (centres unmarked) [Beispiel 48]
IC50 [1]: 2.95 µM
Stimulationsfaktor der Proteoglykansynthese [3]: 1,7

COP(=O)(OC)C(NCc1ccc2c(c1)OCO2)c1cc(C(C)(C)C)c(O)c(C(C)(C)C)c1 (centres unmarked) [Beispiel 29]
IC50 [1]: 0.69 µM
Stimulationsfaktor der Proteoglykansynthese [3]: 1,5

CC(C)(C)c1cc(C(Nc2ccc(Cl)cc2)P(=O)(O)O)cc(C(C)(C)C)c1O (centres unmarked) [Beispiel 4]
IC50 [1]: 0.71 µM

CCOP(=O)(OCC)C(Nc1ccc(F)cc1)c1cc(C(C)(C)C)c(O)c(C(C)(C)C)c1 (centres unmarked) [Beispiel 38]
fold induction at 10 µM [2]: 1.7
Stimulationsfaktor der Proteoglykansynthese [3]: 1,3

COP(=O)(OC)C(Nc1ccc(Cl)cc1)c1cc(C(C)(C)C)c(O)c(C(C)(C)C)c1 (centres unmarked) [Beispiel 43]
IC50 [1]: 0.79 µM
Stimulationsfaktor der Proteoglykansynthese [3]: 1,4

CCCOP(=O)(OCCC)C(Nc1ccc(Cl)cc1)c1cc(C(C)(C)C)c(O)c(C(C)(C)C)c1 (centres unmarked) [Beispiel 44]
IC50 [1]: 1.05 µM
Stimulationsfaktor der Proteoglykansynthese [3]: 1,5

CCOP(=O)(O)C(Nc1ccccn1)c1cc(C(C)(C)C)c(O)c(C(C)(C)C)c1 (centres unmarked) [Beispiel 78]
fold induction at 10 µM [2]: 1.4

CCOP(=O)(OCC)C(NCc1ccc(N)cc1)c1cc(C(C)(C)C)c(O)c(C(C)(C)C)c1 (centres unmarked) [Beispiel 34]
fold induction at 10 µM [2]: 1.2
IC50 [1]: 0.7 µM

CC(C)(C)c1cc(C(Nc2ccc(Cl)cc2)P(=O)(Oc2ccccc2)Oc2ccccc2)cc(C(C)(C)C)c1O (centres unmarked) [Beispiel 47]
Stimulationsfaktor der Proteoglykansynthese [3]: 1,8

CCOP(=O)(OCC)C(NCc1ccc(Cl)cc1)c1cc(C(C)(C)C)c(O)c(C(C)(C)C)c1 (centres unmarked) [Beispiel 33]
Stimulationsfaktor der Proteoglykansynthese [3]: 2,2

CCOP(=O)(OCC)C(Nc1ccccc1Cl)c1cc(C(C)(C)C)c(O)c(C(C)(C)C)c1 (centres unmarked) [Beispiel 39]
IC50 [1]: 2.4 µM

CCOP(=O)(OCC)C(NC(CC(C)C)C(=O)OC)c1cc(C(C)(C)C)c(O)c(C(C)(C)C)c1 (centres unmarked) [Beispiel 20]
IC50 [1]: 2.1 µM

CCOP(=O)(OCC)C(NC1CCCCC1)c1cc(C(C)(C)C)c(O)c(C(C)(C)C)c1 (centres unmarked) [Beispiel 8]
fold induction at 10 µM [2]: 1.2
IC50 [1]: 0.73 µM

CCOP(=O)(OCC)C(Nc1ccc(C(F)(F)F)cc1)c1cc(C(C)(C)C)c(O)c(C(C)(C)C)c1 (centres unmarked) [Beispiel 51]
fold induction at 10 µM [2]: 1.6

CCOP(=O)(OCC)C(NC1CCCCCC1)c1cc(C(C)(C)C)c(O)c(C(C)(C)C)c1 (centres unmarked) [Beispiel 11]
IC50 [1]: 0.97 µM

CC(C)(C)c1cc(C(NCc2ccc3c(c2)OCO3)[PH](=O)O)cc(C(C)(C)C)c1O (centres unmarked) [Beispiel 28]
Stimulationsfaktor der Proteoglykansynthese [3]: 5,5

CCOP(=O)(OCC)C(Nc1ccc2ccccc2c1)c1cc(C(C)(C)C)c(O)c(C(C)(C)C)c1 (centres unmarked) [Beispiel 76]
IC50 [1]: 2.05 µM

CCCCOP(=O)(OCCCC)C(NC1CCCCC1)c1cc(C(C)(C)C)c(O)c(C(C)(C)C)c1 (centres unmarked) [Beispiel 10]
IC50 [1]: 9 µM
Stimulationsfaktor der Proteoglykansynthese [3]: 1,5
